{"source": "patent US8283361B2", "about": "(AstraZeneca AB, priority 2008, dated 2012)"}
{"target": "S. aureus GyrB ATPase (Staphylococcus aureus, UniProt P0A0K8)", "sequence (P0A0K8 whole entry)": "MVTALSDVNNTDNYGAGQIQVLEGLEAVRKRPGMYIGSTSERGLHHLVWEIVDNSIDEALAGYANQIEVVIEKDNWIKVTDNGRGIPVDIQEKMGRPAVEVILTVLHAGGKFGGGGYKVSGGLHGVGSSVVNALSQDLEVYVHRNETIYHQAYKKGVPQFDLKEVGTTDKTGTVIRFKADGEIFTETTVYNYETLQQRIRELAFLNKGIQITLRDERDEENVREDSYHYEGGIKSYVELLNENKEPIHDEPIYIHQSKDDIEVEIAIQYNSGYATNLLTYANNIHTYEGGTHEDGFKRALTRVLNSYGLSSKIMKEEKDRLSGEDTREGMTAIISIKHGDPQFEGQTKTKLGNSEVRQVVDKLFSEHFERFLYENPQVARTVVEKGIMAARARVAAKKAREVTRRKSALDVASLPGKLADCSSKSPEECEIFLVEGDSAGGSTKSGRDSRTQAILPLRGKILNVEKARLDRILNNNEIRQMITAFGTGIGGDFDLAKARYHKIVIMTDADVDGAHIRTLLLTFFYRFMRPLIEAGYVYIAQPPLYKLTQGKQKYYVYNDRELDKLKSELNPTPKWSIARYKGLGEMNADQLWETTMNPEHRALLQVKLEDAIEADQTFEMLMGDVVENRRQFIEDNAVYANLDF", "sequence (P0AES4 whole entry, further chain)": "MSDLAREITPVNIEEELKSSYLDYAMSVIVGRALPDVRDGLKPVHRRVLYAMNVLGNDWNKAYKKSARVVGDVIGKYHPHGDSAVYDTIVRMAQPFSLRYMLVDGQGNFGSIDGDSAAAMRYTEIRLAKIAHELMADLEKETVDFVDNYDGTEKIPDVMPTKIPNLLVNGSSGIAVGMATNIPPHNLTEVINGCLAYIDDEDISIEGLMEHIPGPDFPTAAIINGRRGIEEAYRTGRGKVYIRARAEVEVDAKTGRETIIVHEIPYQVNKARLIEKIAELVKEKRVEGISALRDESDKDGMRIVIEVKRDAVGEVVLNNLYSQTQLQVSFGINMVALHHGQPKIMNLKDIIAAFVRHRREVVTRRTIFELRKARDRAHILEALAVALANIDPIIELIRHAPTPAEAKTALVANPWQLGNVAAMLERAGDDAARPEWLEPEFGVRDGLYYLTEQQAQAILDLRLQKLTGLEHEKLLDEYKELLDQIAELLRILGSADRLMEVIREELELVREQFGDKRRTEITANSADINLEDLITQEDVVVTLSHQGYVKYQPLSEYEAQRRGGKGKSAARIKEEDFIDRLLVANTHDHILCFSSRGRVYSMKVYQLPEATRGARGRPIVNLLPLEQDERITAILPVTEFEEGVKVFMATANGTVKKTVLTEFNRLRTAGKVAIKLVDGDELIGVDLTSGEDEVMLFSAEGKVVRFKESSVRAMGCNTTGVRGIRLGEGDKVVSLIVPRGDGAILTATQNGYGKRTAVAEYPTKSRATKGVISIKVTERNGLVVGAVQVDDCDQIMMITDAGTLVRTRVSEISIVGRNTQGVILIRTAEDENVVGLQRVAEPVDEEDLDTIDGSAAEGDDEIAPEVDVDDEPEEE", "test": "biochemical", "conditions": "compound at 1 μM; one value per test if tested more than once; read-out: % Inhibition of S. aureus GyrB ATPase", "in_short": "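IC50 values derive from 10-point titrations of compound (in DMSO). Phosphate formed from 250 μM ATP was quantified by acidic molybdate/malachite green after quenching.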", "units": {"inhibition at 1 µM": "%"}}
{"smiles": "COCCn1cc(C(=O)NCCO)c(=O)c2cc(-c3cnc(NC(=O)NC(C)C)cc3-c3nc(C(F)(F)F)cs3)ccc21", "note": "[Example 208, N-(2-hydroxyethyl)-6-(6-(3-isopropylureido)-4-(4-(trifluoromethyl)thiazol-2-yl)pyridin-3-yl)-1-(2-methoxyethyl)-4-oxo-1,4-dihydroquinoline-3-carboxamide]", "inhibition at 1 µM": 97}
{"smiles": "CC(C)NC(=O)Nc1cc(-c2nc(C(F)(F)F)cs2)c(-c2ccc3c(c2)c(=O)c(C(=O)NCCO)cn3C2CCOCC2)cn1", "note": "[Example 210, N-(2-hydroxyethyl)-6-(6-(3-isopropylureido)-4-(4-(trifluoromethyl)thiazol-2-yl)pyridin-3-yl)-4-oxo-1-(tetrahydro-2H-pyran-4-yl)-1,4-dihydroquinoline-3-carboxamide]", "inhibition at 1 µM": 93}
{"smiles": "CC(C)NC(=O)Nc1cc(-c2nc(C(F)(F)F)cs2)c(-c2ccc3c(c2)c(=O)c(C(=O)NCCO)cn3CCN2CCN(C)CC2)cn1", "note": "[Example 212]", "inhibition at 1 µM": 94}
{"smiles": "CCCNC(=O)Nc1cc(-c2nc(C(F)(F)F)cs2)c(-c2ccc3c(c2)c(=O)c(C(=O)NCCO)cn3CCC2CCN(C)CC2)cn1", "note": "[Example 213]", "inhibition at 1 µM": 94}
{"smiles": "CCCNC(=O)Nc1cc(-c2nc(C(F)(F)F)cs2)c(-c2ccc3c(c2)c(=O)c(C(=O)NCCO)cn3CCC2CCOCC2)cn1", "note": "[Example 214, N-(2-hydroxyethyl)-4-oxo-6-(6-(3-propylureido)-4-(4-(trifluoromethyl)thiazol-2-yl)pyridin-3-yl)-1-(2-(tetrahydro-2H-pyran-4-yl)ethyl)-1,4-dihydroquinoline-3-carboxamide]", "inhibition at 1 µM": 118}
{"smiles": "CC(C)NC(=O)Nc1cc(-c2nc(C(F)(F)F)cs2)c(-c2ccc3c(c2)c(=O)c(C(=O)NCCO)cn3CCC2CCN(C)CC2)cn1", "note": "[Example 216, N-(2-hydroxyethyl)-6-(6-(3-isopropylureido)-4-(4-(trifluoromethyl)thiazol-2-yl)pyridin-3-yl)-1-(2-(1-methylpiperidin-4-yl)ethyl)-4-oxo-1,4-dihydroquinoline-3-carboxamide]", "inhibition at 1 µM": 109}
{"smiles": "CCCNC(=O)Nc1cc(-c2nc(C(F)(F)F)cs2)c(-c2ccc3c(c2)c(=O)c(C(=O)NCCN(C)C)cn3CCN(C)C)cn1", "note": "[Example 219, N,1-bis(2-(dimethylamino)ethyl)-4-oxo-6-(6-(3-propylureido)-4-(4-(trifluoromethyl)thiazol-2-yl)pyridin-3-yl)-1,4-dihydroquinoline-3-carboxamide]", "inhibition at 1 µM": 86}
{"smiles": "CC(C)NC(=O)Nc1cc(-c2nc(C(F)(F)F)cs2)c(-c2ccc3c(c2)c(=O)c(C(=O)NCCN(C)C)cn3CCC2CCN(C)CC2)cn1", "note": "[Example 226]", "inhibition at 1 µM": 94}
{"smiles": "CC(C)NC(=O)Nc1cc(-c2nc(C(F)(F)F)cs2)c(-c2ccc3c(c2)c(=O)c(C(=O)NCCN(C)C)cn3CCN2CCN(C)CC2)cn1", "note": "[Example 227, N-(2-(dimethylamino)ethyl)-6-(6-(3-isopropylureido)-4-(4-(trifluoromethyl)thiazol-2-yl)pyridin-3-yl)-1-(2-(4-methylpiperazin-1-yl)ethyl)-4-oxo-1,4-dihydroquinoline-3-carboxamide]", "inhibition at 1 µM": 91}
{"smiles": "CCCNC(=O)Nc1cc(-c2nc(C(F)(F)F)cs2)c(-c2ccc3c(c2)c(=O)c(C(=O)NCCN(C)C)cn3CCC2CCOCC2)cn1", "note": "[Example 232, N-(2-(dimethylamino)ethyl)-4-oxo-6-(6-(3-propylureido)-4-(4-(trifluoromethyl)thiazol-2-yl)pyridin-3-yl)-1-(2-(tetrahydro-2H-pyran-4-yl)ethyl)-1,4-dihydroquinoline-3-carboxamide]", "inhibition at 1 µM": 98}
{"smiles": "CCNC(=O)Nc1cc(-c2nc(C(F)(F)F)cs2)c(-c2ccc3c(c2)c(=O)c(C(=O)O)cn3C[C@@H]2CCN(CCN3CCOCC3)C2)cn1", "note": "[Example 237, (R)-6-(6-(3-ethylureido)-4-(4-(trifluoromethyl)thiazol-2-yl)pyridin-3-yl)-1-((1-(2-morpholinoethyl)pyrrolidin-3-yl)methyl)-4-oxo-1,4-dihydroquinoline-3-carboxylic acid]", "inhibition at 1 µM": 103}
{"smiles": "CCNC(=O)Nc1cc(-c2nc(C(F)(F)F)cs2)c(-c2ccc3c(c2)c(=O)c(C(=O)O)cn3C[C@H]2CCN(CCN3CCOCC3)C2)cn1", "note": "[Example 238, (S)-6-(6-(3-ethylureido)-4-(4-(trifluoromethyl)thiazol-2-yl)pyridin-3-yl)-1-((1-(2-morpholinoethyl)pyrrolidin-3-yl)methyl)-4-oxo-1,4-dihydroquinoline-3-carboxylic acid]", "inhibition at 1 µM": 97}
{"smiles": "CCNC(=O)Nc1cc(-c2nc(C(F)(F)F)cs2)c(-c2ccc3c(c2)c(=O)c(C(=O)O)cn3C[C@@H]2CCCNC2)cn1", "note": "[Example 242, (R)-1-((1-piperidin-3-yl)methyl)-6-(6-(3-ethylureido)-4-(4-(trifluoromethyl)thiazol-2-yl)pyridin-3-yl)-4-oxo-1,4-dihydroquinoline-3-carboxylic acid]", "inhibition at 1 µM": 104}
{"smiles": "CCNC(=O)Nc1cc(-c2nc(C(F)(F)F)cs2)c(-c2ccc3c(c2)c(=O)c(C(=O)O)cn3C[C@H]2CCNC2)cn1", "note": "[Example 243, (S)-6-(6-(3-ethylureido)-4-(4-(trifluoromethyl)thiazol-2-yl)pyridin-3-yl)-4-oxo-1-(pyrrolidin-3-ylmethyl)-1,4-dihydroquinoline-3-carboxylic acid]", "inhibition at 1 µM": 116}
{"smiles": "CCNC(=O)Nc1cc(-c2nc(C(F)(F)F)cs2)c(-c2ccc3c(c2)c(=O)c(C(=O)O)cn3[C@@H]2CCNC2)cn1", "note": "[Example 244, (R)-6-(6-(3-ethylureido)-4-(4-(trifluoromethyl)thiazol-2-yl)pyridin-3-yl)-4-oxo-1-(pyrrolidin-3-yl)-1,4-dihydroquinoline-3-carboxylic acid]", "inhibition at 1 µM": 111}
{"smiles": "CCNC(=O)Nc1cc(-c2nc(C(F)(F)F)cs2)c(-c2ccc3c(c2)c(=O)c(C(=O)O)cn3[C@H]2CCCNC2)cn1", "note": "[Example 245, (S)-6-(6-(3-ethylureido)-4-(4-(trifluoromethyl)thiazol-2-yl)pyridin-3-yl)-4-oxo-1-(piperidin-3-yl)-1,4-dihydroquinoline-3-carboxylic acid]", "inhibition at 1 µM": 105}
{"smiles": "CCNC(=O)Nc1cc(-c2nc(C(F)(F)F)cs2)c(-c2ccc3c(c2)c(=O)c(C(=O)O)cn3[C@@H]2CCN(C)C2)cn1", "note": "[Example 246, (R)-6-(6-(3-ethylureido)-4-(4-(trifluoromethyl)thiazol-2-yl)pyridin-3-yl)-1-(1-methylpyrrolidin-3-yl)-4-oxo-1,4-dihydroquinoline-3-carboxylic acid]", "inhibition at 1 µM": 104}
{"smiles": "CCNC(=O)Nc1cc(-c2nc(C(F)(F)F)cs2)c(-c2ccc3c(c2)c(=O)c(C(=O)O)cn3C[C@@H]2CCCN(C)C2)cn1", "note": "[Example 247, (R)-6-(6-(3-ethylureido)-4-(4-(trifluoromethyl)thiazol-2-yl)pyridin-3-yl)-1-((1-methylpiperidin-3-yl)methyl)-4-oxo-1,4-dihydroquinoline-3-carboxylic acid]", "inhibition at 1 µM": 115}
{"smiles": "CCNC(=O)Nc1cc(-c2nc(C(F)(F)F)cs2)c(-c2ccc3c(c2)c(=O)c(C(=O)O)cn3[C@H]2CCCN(C)C2)cn1", "note": "[Example 248, (S)-6-(6-(3-ethylureido)-4-(4-(trifluoromethyl)thiazol-2-yl)pyridin-3-yl)-1-(1-methylpiperidin-3-yl)-4-oxo-1,4-dihydroquinoline-3-carboxylic acid]", "inhibition at 1 µM": 103}
{"smiles": "CCNC(=O)Nc1cc(-c2nc(C(F)(F)F)cs2)c(-c2ccc3c(c2)c(=O)c(C(=O)O)cn3C[C@H]2CCN(CC)C2)cn1", "note": "[Example 249, (S)-1-((1-ethylpyrrolidin-3-yl)methyl)-6-(6-(3-ethylureido)-4-(4-(trifluoromethyl)thiazol-2-yl)pyridin-3-yl)-4-oxo-1,4-dihydroquinoline-3-carboxylic acid]", "inhibition at 1 µM": 113}
{"smiles": "CCNC(=O)Nc1cc(-c2nc(C(F)(F)F)cs2)c(-c2ccc3c(c2)c(=O)c(C(=O)O)cn3[C@@H]2CCN(CC)C2)cn1", "note": "[Example 250, (R)-1-(1-ethylpyrrolidin-3-yl)-6-(6-(3-ethylureido)-4-(4-(trifluoromethyl)thiazol-2-yl)pyridin-3-yl)-4-oxo-1,4-dihydroquinoline-3-carboxylic acid]", "inhibition at 1 µM": 112}
{"smiles": "CCNC(=O)Nc1cc(-c2nc(C(F)(F)F)cs2)c(-c2ccc3c(c2)c(=O)c(C(=O)O)cn3C[C@@H]2CCCN(CC)C2)cn1", "note": "[Example 251, (R)-1-((1-ethylpiperidin-3-yl)methyl)-6-(6-(3-ethylureido)-4-(4-(trifluoromethyl)thiazol-2-yl)pyridin-3-yl)-4-oxo-1,4-dihydroquinoline-3-carboxylic acid]", "inhibition at 1 µM": 113}
{"smiles": "CCNC(=O)Nc1cc(-c2nc(C(F)(F)F)cs2)c(-c2ccc3c(c2)c(=O)c(C(=O)O)cn3[C@@H]2CCCN(CC)C2)cn1", "note": "[Example 252, (R)-1-(1-ethylpiperidin-3-yl)-6-(6-(3-ethylureido)-4-(4-(trifluoromethyl)thiazol-2-yl)pyridin-3-yl)-4-oxo-1,4-dihydroquinoline-3-carboxylic acid]", "inhibition at 1 µM": 105}
{"smiles": "CCNC(=O)Nc1cc(-c2nc(C(F)(F)F)cs2)c(-c2ccc3c(c2)c(=O)c(C(=O)O)cn3CC(C)N(C)C)cn1", "note": "(centres unmarked) [Example 277, 1-(2-(dimethylamino)propyl)-6-(6-(3-ethylureido)-4-(4-(trifluoromethyl)thiazol-2-yl)pyridin-3-yl)-4-oxo-1,4-dihydroquinoline-3-carboxylic acid]", "inhibition at 1 µM": 103}
{"smiles": "CCNC(=O)Nc1cc(-c2nc(C(F)(F)F)cs2)c(-c2ccc3c(c2)c(=O)c(C(=O)O)cn3[C@@H]2CCCC[C@H]2O)cn1", "note": "[Example 278, 6-(6-(3-ethylureido)-4-(4-(trifluoromethyl)thiazol-2-yl)pyridin-3-yl)-1-((1R,2R)-2-hydroxycyclohexyl)-4-oxo-1,4-dihydroquinoline-3-carboxylic acid]", "inhibition at 1 µM": 101}
{"smiles": "CCNC(=O)Nc1cc(-c2nc(C(F)(F)F)cs2)c(-c2ccc3c(c2)c(=O)c(C(=O)O)cn3[C@H]2CCCC[C@@H]2O)cn1", "note": "[Example 279, 6-(6-(3-ethylureido)-4-(4-(trifluoromethyl)thiazol-2-yl)pyridin-3-yl)-1-((1S,2S)-2-hydroxycyclohexyl)-4-oxo-1,4-dihydroquinoline-3-carboxylic acid]", "inhibition at 1 µM": 103}
